Values after ≈ are worked out from the molar mass of the structure shown. Non-standard residues stand in square brackets, D forms with d. Residues, ends and D or L forms follow the SMILES beside them. ξ: configuration not given here. *: point of attachment. X3 = CC(=O)N[C@H]1[C@H]([C@H](OCCCCCN*)[C@H](O)CO)OC(C(=O)O)=C[C@@H]1NC(=N)N; X4 = CC(=O)N[C@H]1[C@H]([C@H](OCCCCCN*)[C@H](O)CO)OC(C(=O)O)=C[C@@H]1N=C(N)N; X1 = CC(=O)N[C@H]1[C@H]([C@H](OCCN*)[C@H](O)CO)OC(C(=O)O)=C[C@@H]1NC(=N)N; X2 = CC(=O)N[C@H]1[C@H]([C@H](OCCN*)[C@H](O)CO)OC(C(=O)O)=C[C@@H]1N=C(N)N; ξE = NC(CCC(=O)O)C(=O)O; NHBn = c1ccc(CN*)cc1; NHPentyl = CCCCCN*

This note sets out measurements from ChEMBL document CHEMBL1135182, “Synthesis and anti-influenza evaluation of polyvalent sialidase inhibitors bearing 4-guanidino-Neu5Ac2en derivatives” (Bioorg Med Chem Lett, 2002).

In test [1] the test system is Influenza A virus. As to the kind of experiment: Inhibitory concentration by Plaque reduction assay. It counts as functional, organism-based.
The species entered for test [2] is Mus musculus. Description: Number of survivors out of 7 tested mice at 10 days after infection with influenza A/PR/8/34 (H1N1) virus. It is filed as functional.
The subject of test [3] is Influenza A virus. Description: Inhibitory concentration by Sialidase inhibitory assay. It counts as functional, organism-based.
The species named for test [4] is Mus musculus. Description: Number of survivors out of 7 tested mice at 20 days after infection with influenza A/PR/8/34 (H1N1) virus. It counts as functional.
The species named for test [5] is Mus musculus. As to the kind of experiment: Number of survivors out of 8 tested mice at 20 days after infection, with influenza A/PR/8/34 (H1N1) virus. It is filed as functional.
The species named for test [6] is Mus musculus. As to the kind of experiment: Number of survivors out of 8 tested mice at 10 days after infection with influenza A/PR/8/34 (H1N1) virus. It counts as functional.

For orientation: IC50 means the concentration that gives 50% inhibition. Consider `CC(=O)N[C@H]1[C@H]([C@H](OCCCCCNC(=O)CCC(N)C(=O)N[C@@H](CCC(N)=O)C(=O)N[C@@H](CCC(N)=O)C(=O)N[C@@H](CCC(N)=O)C(=O)CN[C@@H](CCC(N)=O)C(=O)N[C@@H](CCC(N)=O)C(=O)N[C@@H](CCC(N)=O)C(=O)N[C@@H](CCC(N)=O)C(=O)N[C@@H](CCC(N)=O)C(=O)N[C@@H](CCC(N)=O)C(=O)N[C@@H](CCC(N)=O)C(N)=O)[C@H](O)CO)OC(C(=O)O)=C[C@@H]1NC(=N)N` (some centres undefined), for which the half-maximal inhibitory concentration (IC50) amounted to 0.072 ng/mL (≈ 0.0391 nM) with Influenza A virus [1] and 161 ng/mL (≈ 87.5 nM) with Influenza A virus [3]. For the same molecule, the Survival rate in the test filed under Mus musculus [2] and in the test listed under Mus musculus [4] was 7 each time.
Regarding `CC(=O)N[C@H]1[C@H]([C@H](OCCCCCNC(=O)CC[C@H](NC(=O)[C@H](CCC(=O)NCc2ccccc2)NC(=O)[C@@H](N)CCC(=O)NCc2ccccc2)C(=O)N[C@@H](CCC(N)=O)C(=O)N[C@@H](CCC(N)=O)C(=O)N[C@@H](CCC(N)=O)C(=O)N[C@@H](CCC(N)=O)C(=O)N[C@@H](CCC(N)=O)C(=O)N[C@@H](CCC(N)=O)C(=O)N[C@@H](CCC(N)=O)C(=O)N[C@@H](CCC(N)=O)C(N)=O)[C@H](O)CO)OC(C(=O)O)=C[C@@H]1NC(=N)N` (H-E(NHBn)E(NHBn)E(X3)QQQQQQQQ-NH2), the IC50 in the test with Influenza A virus [1] came to 0.028 ng/mL (≈ 0.014 nM); with Influenza A virus [3], 63 ng/mL (≈ 31.4 nM).
`CC(=O)N[C@H]1[C@H]([C@H](O)[C@H](O)CO)OC(C(=O)O)=C[C@@H]1NC(=N)N` [ZANAMIVIR]: the Survival rate in the test filed under Mus musculus [5] was 0; in the test filed under Mus musculus [6] it was 1.
In the case of `CC(=O)N[C@H]1[C@H]([C@H](OCCNC(=O)CCC(N)C(=O)N[C@@H](CCC(N)=O)C(=O)N[C@@H](CCC(N)=O)C(=O)N[C@@H](CCC(N)=O)C(=O)CN[C@@H](CCC(N)=O)C(=O)N[C@@H](CCC(N)=O)C(=O)N[C@@H](CCC(N)=O)C(=O)N[C@@H](CCC(N)=O)C(=O)N[C@@H](CCC(N)=O)C(=O)N[C@@H](CCC(N)=O)C(=O)N[C@@H](CCC(N)=O)C(N)=O)[C@H](O)CO)OC(C(=O)O)=C[C@@H]1NC(=N)N` (some centres undefined), the 50% inhibitory concentration (IC50) amounted to 0.066 ng/mL (≈ 0.0367 nM) in the test with Influenza A virus [1] and 114 ng/mL (≈ 63.4 nM) with Influenza A virus [3].
The corresponding values for `CC(=O)N[C@H]1[C@H]([C@H](OCCNC(=O)CCC(N)C(=O)N[C@@H](CCC(N)=O)C(=O)N[C@@H](CCC(N)=O)C(=O)N[C@@H](CCC(N)=O)C(N)=O)[C@H](O)CO)OC(C(=O)O)=C[C@@H]1NC(=N)N` (some centres undefined) (H-[ξE](X1)QQQ-NH2) are 0.17 ng/mL (≈ 0.191 nM) and 364 ng/mL (≈ 410 nM).
On the same counts, the results for `CCCCCNC(=O)CC[C@H](NC(=O)[C@H](CCC(=O)NCCCCC)NC(=O)[C@H](CCC(=O)NCCCCC)NC(=O)[C@@H](N)CCC(=O)NCCCCC)C(=O)N[C@@H](CCC(=O)NCCO[C@@H]([C@@H]1OC(C(=O)O)=C[C@H](N=C(N)N)[C@H]1NC(C)=O)[C@H](O)CO)C(=O)N[C@@H](CCC(N)=O)C(=O)N[C@@H](CCC(N)=O)C(=O)N[C@@H](CCC(N)=O)C(=O)N[C@@H](CCC(N)=O)C(=O)N[C@@H](CCC(N)=O)C(=O)N[C@@H](CCC(N)=O)C(=O)N[C@@H](CCC(N)=O)C(N)=O` (H-E(NHPentyl)E(NHPentyl)E(NHPentyl)E(NHPentyl)E(X2)QQQQQQQ-NH2) are 0.1 ng/mL (≈ 0.0456 nM) and 585 ng/mL (≈ 267 nM).
The corresponding values for `CC(=O)NCCCCCO[C@@H]([C@@H]1OC(C(=O)O)=C[C@H](N=C(N)N)[C@H]1NC(C)=O)[C@H](O)CO` are 5.9 ng/mL (≈ 12.8 nM) and 90 ng/mL (≈ 196 nM).
With `CC(=O)NCCO[C@@H]([C@@H]1OC(C(=O)O)=C[C@H](N=C(N)N)[C@H]1NC(C)=O)[C@H](O)CO`, the 50% inhibitory concentration (IC50) in the test on Influenza A virus [1] turned out to be 5.5 ng/mL (≈ 13.2 nM); in the test on Influenza A virus [3] it was 22 ng/mL (≈ 52.7 nM).
On the same counts, the results for `CCCCCNC(=O)CC[C@H](NC(=O)[C@@H](N)CCC(=O)NCCCCC)C(=O)N[C@@H](CCC(=O)NCCCCCO[C@@H]([C@@H]1OC(C(=O)O)=C[C@H](N=C(N)N)[C@H]1NC(C)=O)[C@H](O)CO)C(=O)N[C@@H](CCC(N)=O)C(=O)N[C@@H](CCC(N)=O)C(=O)N[C@@H](CCC(N)=O)C(=O)N[C@@H](CCC(N)=O)C(=O)N[C@@H](CCC(N)=O)C(=O)N[C@@H](CCC(N)=O)C(=O)N[C@@H](CCC(N)=O)C(=O)N[C@@H](CCC(N)=O)C(N)=O` (H-E(NHPentyl)E(NHPentyl)E(X4)QQQQQQQQ-NH2) are 0.32 ng/mL (≈ 0.163 nM) and 113 ng/mL (≈ 57.4 nM).
As for `CC(=O)N[C@H]1[C@H]([C@H](OCCNC(=O)CC[C@H](NC(=O)[C@H](CCC(=O)NCc2ccccc2)NC(=O)[C@H](CCC(=O)NCc2ccccc2)NC(=O)[C@H](CCC(=O)NCc2ccccc2)NC(=O)[C@@H](N)CCC(=O)NCc2ccccc2)C(=O)N[C@@H](CCC(N)=O)C(=O)N[C@@H](CCC(N)=O)C(=O)N[C@@H](CCC(N)=O)C(=O)N[C@@H](CCC(N)=O)C(=O)N[C@@H](CCC(N)=O)C(=O)N[C@@H](CCC(N)=O)C(=O)N[C@@H](CCC(N)=O)C(N)=O)[C@H](O)CO)OC(C(=O)O)=C[C@@H]1NC(=N)N` (H-E(NHBn)E(NHBn)E(NHBn)E(NHBn)E(X1)QQQQQQQ-NH2), the IC50 in the test on Influenza A virus [1] came out at 0.15 ng/mL (≈ 0.066 nM); in the test on Influenza A virus [3], 324 ng/mL (≈ 143 nM).
On the same counts, the results for `CC(=O)N[C@H]1[C@H]([C@H](OCCCCCCCCCCNC(=O)CCC(N)C(=O)N[C@@H](CCC(N)=O)C(=O)N[C@@H](CCC(N)=O)C(=O)N[C@@H](CCC(N)=O)C(=O)CN[C@@H](CCC(N)=O)C(=O)N[C@@H](CCC(N)=O)C(=O)N[C@@H](CCC(N)=O)C(=O)N[C@@H](CCC(N)=O)C(=O)N[C@@H](CCC(N)=O)C(=O)N[C@@H](CCC(N)=O)C(=O)N[C@@H](CCC(N)=O)C(N)=O)[C@H](O)CO)OC(C(=O)O)=C[C@@H]1NC(=N)N` (some centres undefined) are 2.1 ng/mL (≈ 1.1 nM) and 62 ng/mL (≈ 32.4 nM).
